{"source": "patent US20210087175A1", "about": "“Crystalline Form II of Darolutamide” (Sandoz AG, priority 2018, published 2021)", "key": {"[1]": {"assay": "Gravimetric moisture sorption (GMS)", "assay_type": "physicochemical", "details": "for phase change during the GMS experiments: 0% to approximately 90% r.h.; for water uptake from 0% to 90% RH: 25±0.1° C.", "method": "Moisture sorption isotherms were recorded with an SPSx-1p moisture sorption analyzer (ProUmid, Ulm. The measurement cycle was started at a relative humidity (r.h.) of 25%. Relative humidity was then decreased to 5% r.h. in 5% steps, followed by a further decrease to 3% r.h. and to 0% r.h. Afterwards r.h. was increased from 0% to approximately 90% r.h. in a sorption cycle and decreased to 0% in a desorption cycle in 5% steps. Finally r.h. was increased to 25% r.h. in 5% steps.\nThe time per step was set to a minimum of 2 hours and a maximum of 6 hours. If an equilibrium condition with a constant mass of 0.01% within 1 hour was reached before the maximum time for all examined samples the sequential humidity step was applied before the maximum time of 6 hours. If no equilibrium was achieved the consecutive humidity step was applied after the maximum time of 6 hours. The temperature was 25±0.1° C."}, "[2]": {"assay": "Time-dependent solubility of slurries (HPLC) in aqueous hydrochloric acid (0.1 N) and phosphate buffer (pH 7.5) at 37° C.", "assay_type": "physicochemical", "details": "phosphate buffer (pH 7.5)"}, "[3]": {"assay": "Time-dependent solubility of slurries (HPLC) in aqueous hydrochloric acid (0.1 N) and phosphate buffer (pH 7.5) at 37° C.", "assay_type": "physicochemical", "method": "a) Solubility in Aqueous Hydrochloric Acid (0.1 N)\n102.39 mg of darolutamide form I were slurried in 20 mL aqueous hydrochloric acid (0.1 N) at 37° C.\n99.41 mg of darolutamide form II were slurried in 20 mL aqueous hydrochloric acid (0.1 N) at 37° C.\nb) Solubility in Phosphate Buffer (pH 7.5)\n105.02 mg of darolutamide form I were slurried in 20 mL […] at 37° C.\n103.41 mg of darolutamide form II were slurried in 20 mL […] at 37° C.\nSamples were taken after 5 min, 15 min and 60 min. The suspensions were filtered and subjected undiluted to HPLC. The absolute solubility was calculated by creating a linear calibration curve (see below). Results are reported in Table 4 and in FIGS. 10 and 11.\nSolutions of different concentrations (Table 5) of darolutamide were prepared in acetonitrile/water (75% v/v) at 37° C. and subjected to HPLC measurement. The resulting areas were illustrated as a function of the concentrations and a linear dependency could be observed (FIG. 12)."}, "[4]": {"assay": "Food effect / blood levels after oral administration", "assay_type": "in vivo"}}, "data": [{"smiles": "CC(O)c1cc(C(=O)N[C@@H](C)Cn2ccc(-c3ccc(C#N)c(Cl)c3)n2)n[nH]1", "note": "(mixture of isomers) [Form II, N-{(2S)-1-[3-(3-chloro-4-cyanophenyl)-1H-pyrazol-1-yl]-propan-2-yl}-5-[(1RS)-1-hydroxyethyl]-1H-pyrazole-3-carboxamide]", "values": [{"measurement": "phase change during the GMS experiments", "setting": "[1]; 25° C.", "value": "Neither form I nor form II underwent any phase change"}, {"measurement": "hygroscopicity (comparison)", "setting": "[1]; GMS, 25° C.", "value": "less hygroscopic than form I"}, {"measurement": "water uptake from 0% to 90% RH", "setting": "[1]; GMS", "value": "+1.3%"}, {"measurement": "solubility (concentration in solution)", "setting": "[2]; slurry time 5 min", "value": 89, "unit": "µg/mL"}, {"measurement": "solubility (concentration in solution)", "setting": "[2]; slurry time 15 min", "value": 97, "unit": "µg/mL"}, {"measurement": "solubility (concentration in solution)", "setting": "[2]; slurry time 60 min", "value": 93, "unit": "µg/mL"}, {"measurement": "solubility (concentration in solution)", "setting": "[3]; slurry time 5 min", "value": 113, "unit": "µg/mL"}, {"measurement": "solubility (concentration in solution)", "setting": "[3]; slurry time 15 min", "value": 121, "unit": "µg/mL"}, {"measurement": "solubility (concentration in solution)", "setting": "[3]; slurry time 60 min", "value": 117, "unit": "µg/mL"}, {"measurement": "food effect", "setting": "[4]; compared to darolutamide Form I", "value": "significantly lower food effect"}, {"measurement": "blood levels when administered without food", "setting": "[4]; without food", "value": "still achieving therapeutically effective blood levels"}]}, {"smiles": "CC(O)c1cc(C(=O)N[C@@H](C)Cn2ccc(-c3ccc(C#N)c(Cl)c3)n2)n[nH]1", "note": "(mixture of isomers) [Form I, N-{(2S)-1-[3-(3-chloro-4-cyanophenyl)-1H-pyrazol-1-yl]-propan-2-yl}-5-[(1RS)-1-hydroxyethyl]-1H-pyrazole-3-carboxamide]", "values": [{"measurement": "phase change during the GMS experiments", "setting": "[1]; 25° C.", "value": "Neither form I nor form II underwent any phase change"}, {"measurement": "water uptake from 0% to 90% RH", "setting": "[1]; GMS", "value": "+1.7%"}, {"measurement": "solubility (concentration in solution)", "setting": "[2]; slurry time 5 min", "value": 43, "unit": "µg/mL"}, {"measurement": "solubility (concentration in solution)", "setting": "[2]; slurry time 15 min", "value": 40, "unit": "µg/mL"}, {"measurement": "solubility (concentration in solution)", "setting": "[2]; slurry time 60 min", "value": 42, "unit": "µg/mL"}, {"measurement": "solubility (concentration in solution)", "setting": "[3]; slurry time 5 min", "value": 43, "unit": "µg/mL"}, {"measurement": "solubility (concentration in solution)", "setting": "[3]; slurry time 15 min", "value": 41, "unit": "µg/mL"}, {"measurement": "solubility (concentration in solution)", "setting": "[3]; slurry time 60 min", "value": 38, "unit": "µg/mL"}]}]}
